Values quoted from earlier work, collected in patent US5747458A, “Urokinase receptor ligands” (Chiron Corporation, priority 1995, dated 1998).

Columns and labels:
uPA:uPAR interaction = uPA:uPAR interaction (Homo sapiens, UniProt Q03405)
uPAR = uPAR (Homo sapiens, UniProt Q03405)
Sequence of uPAR (Q03405 23-335, species assumed): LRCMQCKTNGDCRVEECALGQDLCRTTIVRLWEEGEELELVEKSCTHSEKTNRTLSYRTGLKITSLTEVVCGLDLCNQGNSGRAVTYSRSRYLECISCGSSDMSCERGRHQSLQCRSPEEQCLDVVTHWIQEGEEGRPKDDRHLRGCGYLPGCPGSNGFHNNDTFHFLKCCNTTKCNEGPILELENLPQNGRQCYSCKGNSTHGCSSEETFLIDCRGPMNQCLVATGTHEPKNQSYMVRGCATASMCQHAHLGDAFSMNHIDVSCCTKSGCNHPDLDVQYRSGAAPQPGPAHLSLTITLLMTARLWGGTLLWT

Sequence of uPA:uPAR interaction (Q03405 23-305 limits assumed): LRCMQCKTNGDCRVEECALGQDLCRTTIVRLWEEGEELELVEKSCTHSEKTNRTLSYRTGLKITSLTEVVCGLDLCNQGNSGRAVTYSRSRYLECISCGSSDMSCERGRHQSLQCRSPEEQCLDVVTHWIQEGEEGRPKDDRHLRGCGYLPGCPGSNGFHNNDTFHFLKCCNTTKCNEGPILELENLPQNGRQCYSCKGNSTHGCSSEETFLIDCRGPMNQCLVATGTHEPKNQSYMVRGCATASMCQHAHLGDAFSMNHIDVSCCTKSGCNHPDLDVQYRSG

affinity relative to intact ATF (fold less) (uPAR; compared with intact ATF)	Kd (uPAR; read-out: affinity for uPAR) [nM]	Compound	effective concentration for inhibiting the uPA:uPAR interaction (uPA:uPAR interaction)
–	–	O=S(=O)(O)c1cccc2cccc(Nc3ccccc3)c12 [8-anilinonaphthalene sulfonic acid]	effective only at micromolar concentrations
–	–	Cc1ccc(C(=O)Nc2ccc(S(=O)(=O)O)c3cc(S(=O)(=O)O)cc(S(=O)(=O)O)c23)cc1NC(=O)c1cccc(NC(=O)Nc2cccc(C(=O)Nc3cc(C(=O)Nc4ccc(S(=O)(=O)O)c5cc(S(=O)(=O)O)cc(S(=O)(=O)O)c45)ccc3C)c2)c1 [suramin]	effective only at micromolar concentrations
about 100 fold	40	uPA12-32: critical binding domain alone, residues 12-32 of the EGF-like domain of uPA (DCLNGGTCVSNKYFSNIHWCN; UniProt P00749 32-52, looked up, fragment)	–
